Measurements published in ChEMBL document CHEMBL1201862, “PubChem BioAssay data set” (2004).
Activity calls are given as the source filed them.

What was measured:
[1] = target: T1, Orexin receptor type 2 (Homo sapiens, UniProt O43614); experiment: Counterscreen assay for antagonists of the orexin 1 receptor (OX1R; HCRTR1): Homogeneous Time Resolved Fluorescence (HTRF)-based cell-based dose response assay for antagonists of the orexin 2 receptor (OX2R; HCRTR2), run by assay provider.; type: functional
T1 sequence (O43614 whole entry): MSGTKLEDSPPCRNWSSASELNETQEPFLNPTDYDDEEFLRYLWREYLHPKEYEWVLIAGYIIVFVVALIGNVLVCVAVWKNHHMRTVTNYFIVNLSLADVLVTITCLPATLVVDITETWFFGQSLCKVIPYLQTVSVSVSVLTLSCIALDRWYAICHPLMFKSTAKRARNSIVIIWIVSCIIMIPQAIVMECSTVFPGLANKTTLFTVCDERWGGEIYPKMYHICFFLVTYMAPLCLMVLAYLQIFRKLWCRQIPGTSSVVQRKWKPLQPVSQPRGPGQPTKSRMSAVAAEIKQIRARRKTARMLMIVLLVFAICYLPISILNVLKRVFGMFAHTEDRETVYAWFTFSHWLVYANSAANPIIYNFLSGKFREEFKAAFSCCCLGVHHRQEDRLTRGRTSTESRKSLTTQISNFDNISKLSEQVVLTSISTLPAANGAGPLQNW

[2] = blockers of bursicon-stimulated LGR2 cAMP reporter – cell-based, HEK293, CRE-luciferase reporter, cherry pick, set 2, dose response (AID 743343); type: functional;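 note: transfected cells were stimulated with diluted bursicon conditioned medium after compound addition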
[3] = target: T1, Orexin receptor type 2; experiment: Counterscreen assay for antagonists of the orexin 1 receptor (OX1R; HCRTR1): Fluorescence-based cell-based dose response assay for antagonists of the orexin 2 receptor (OX2R; HCRTR2), run by assay provider.; type: functional
[4] = target: T2, Protein skinhead-1 (Caenorhabditis elegans, UniProt P34707); type: functional
T2 sequence (P34707 whole entry): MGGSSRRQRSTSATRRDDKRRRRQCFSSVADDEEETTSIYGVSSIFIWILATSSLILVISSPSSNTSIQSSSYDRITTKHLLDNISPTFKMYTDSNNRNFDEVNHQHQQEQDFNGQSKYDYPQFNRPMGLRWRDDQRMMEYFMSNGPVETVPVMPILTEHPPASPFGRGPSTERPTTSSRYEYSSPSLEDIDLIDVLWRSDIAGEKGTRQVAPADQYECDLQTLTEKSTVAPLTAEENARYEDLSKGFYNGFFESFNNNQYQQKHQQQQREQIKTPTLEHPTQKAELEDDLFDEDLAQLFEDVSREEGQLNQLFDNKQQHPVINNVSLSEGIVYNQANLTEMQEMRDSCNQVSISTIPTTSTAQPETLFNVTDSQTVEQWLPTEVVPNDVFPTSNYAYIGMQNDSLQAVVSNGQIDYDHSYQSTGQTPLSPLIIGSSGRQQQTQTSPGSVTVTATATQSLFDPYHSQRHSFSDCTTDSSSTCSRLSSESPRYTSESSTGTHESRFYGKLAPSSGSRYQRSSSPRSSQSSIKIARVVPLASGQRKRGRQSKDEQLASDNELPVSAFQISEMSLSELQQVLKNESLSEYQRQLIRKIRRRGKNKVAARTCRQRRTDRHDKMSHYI

[5] = target: T3, Oxysterols receptor LXR-beta (Homo sapiens, UniProt P55055); type: functional, cell-based;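 note: Cell-based luminescence dose-response assay of agonist activity at LXR, run as a confirmatory counterscreen to a daf-12 agonist screen; HEK293 cells with Gal4-LXR fusion and GAL4-driven luciferase reporter; agonist potency from rising luciferase signal of a Gal4-LXR reporter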
T3 sequence (P55055 whole entry): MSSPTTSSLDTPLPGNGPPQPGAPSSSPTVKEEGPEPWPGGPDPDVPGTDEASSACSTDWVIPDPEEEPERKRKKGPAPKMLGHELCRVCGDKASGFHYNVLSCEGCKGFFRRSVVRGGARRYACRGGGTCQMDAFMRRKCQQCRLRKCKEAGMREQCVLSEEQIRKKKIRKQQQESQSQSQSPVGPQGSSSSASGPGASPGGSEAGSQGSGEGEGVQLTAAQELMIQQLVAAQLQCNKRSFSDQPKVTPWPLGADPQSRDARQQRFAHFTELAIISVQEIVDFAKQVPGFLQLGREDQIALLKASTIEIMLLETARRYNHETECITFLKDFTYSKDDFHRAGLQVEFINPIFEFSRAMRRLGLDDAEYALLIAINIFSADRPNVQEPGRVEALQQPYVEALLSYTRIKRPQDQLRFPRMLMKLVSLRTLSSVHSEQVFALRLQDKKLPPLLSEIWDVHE

[6] = tested on: BJ; experiment: BJ-TERT fibroblast viability loss – cell-based, RAS-independent, luminescence, dose response (AID 1933); type: functional; settings: Homo sapiens
[7] = A Cell Based Secondary Assay To Explore Cytotoxicity of Compounds that Sensitize Mycobacterium Tuberculosis to Beta-Lactam Antibiotics.; type: functional
[8] = blockade of melanocortin 4 receptor signaling – cell-based, plate reader, cherry pick, counter-screen for LGR2 antagonist project, dose response (AID 743444); type: functional;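 note: transfected HEK 293 cells stimulated with alpha-MSH peptide; potency of inhibitors of the alpha-MSH evoked signal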
[9] = toxicity toward HepG2 liver cells – cell-based, plate reader, cherry-pick, antagonist series, cytotoxicity control, dose response (AID 743416); type: functional
[10] = tested on: BJ; experiment: growth inhibition of engineered Ras-driven BJ cells – cell-based, alamar blue fluorescence, cherrypicked samples, dose response (AID 2631); type: functional; settings: Homo sapiens;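 note: confirmatory dose-response assay in RAS-dependent BJ fibroblasts engineered with TERT, LT and ST, with cytotoxicity read by fluorescence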
[11] = tested on: BJ; experiment: BJ-TERT-LT-ST fibroblast viability loss – cell-based, RAS-independent, luminescence, dose response (AID 1935); type: functional; settings: Homo sapiens;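 note: BJ fibroblasts immortalized with TERT plus LT and ST oncogenes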
[12] = Luminescence Cell-Based Dose Confirmation HTS to Identify Inhibitors of Platelet Dense Granule Release. [Related pubchem assays: 1663 (Primary HTS), 1678 (Summary of Project)]; type: functional
[13] = target: T4, Orexin/Hypocretin receptor type 1 (Homo sapiens, UniProt O43613); experiment: (§1) Fluorescence-based cell-based high throughput dose response assay for antagonists of the orexin 1 receptor (OX1R; HCRTR1). [Related pubchem assays (depositor defined):AID434989, AID435008, AID463079, AID485270, AID492963, AID492964, AID492965, AID493232, AID504717, AID504718]; type: functional
T4 sequence (O43613 whole entry): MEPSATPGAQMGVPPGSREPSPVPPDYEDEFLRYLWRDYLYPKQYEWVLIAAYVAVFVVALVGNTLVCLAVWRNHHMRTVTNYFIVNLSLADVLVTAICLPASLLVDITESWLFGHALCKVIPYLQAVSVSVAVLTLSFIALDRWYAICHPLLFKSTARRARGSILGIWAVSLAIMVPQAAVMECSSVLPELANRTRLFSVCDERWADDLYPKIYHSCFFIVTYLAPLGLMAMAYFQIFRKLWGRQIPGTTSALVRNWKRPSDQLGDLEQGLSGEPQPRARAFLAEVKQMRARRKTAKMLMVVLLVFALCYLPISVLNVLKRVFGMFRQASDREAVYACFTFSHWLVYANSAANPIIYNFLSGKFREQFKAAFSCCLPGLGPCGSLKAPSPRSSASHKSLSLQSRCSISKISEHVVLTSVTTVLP

[14] = tested on: CHO-K1; experiment: (§2) Counterscreen for antagonists of the orexin 1 receptor (OX1R; HCRTR1): Homogeneous time resolved fluorescence (HTRF)-based cell-based dose response assay to identify antagonists of the parental CHO-K1 cell line. [Related pubchem assays (depositor defined):AID434989, AID435008, AID463079, AID485270, AID492963, AID492964, AID492965, AID493232, AID504699, AID504701]; type: functional; settings: Cricetulus griseus
[15] = tested on: BJ; experiment: cells; type: functional, cell-based; settings: Homo sapiens
[16] = target: Luciferin 4-monooxygenase (Photinus pyralis, UniProt P08659); experiment: inhibition of purified Photinus pyralis luciferase – biochemical, luminescence, dose response (AID 1891)
Chain of Luciferin 4-monooxygenase (P08659 whole entry): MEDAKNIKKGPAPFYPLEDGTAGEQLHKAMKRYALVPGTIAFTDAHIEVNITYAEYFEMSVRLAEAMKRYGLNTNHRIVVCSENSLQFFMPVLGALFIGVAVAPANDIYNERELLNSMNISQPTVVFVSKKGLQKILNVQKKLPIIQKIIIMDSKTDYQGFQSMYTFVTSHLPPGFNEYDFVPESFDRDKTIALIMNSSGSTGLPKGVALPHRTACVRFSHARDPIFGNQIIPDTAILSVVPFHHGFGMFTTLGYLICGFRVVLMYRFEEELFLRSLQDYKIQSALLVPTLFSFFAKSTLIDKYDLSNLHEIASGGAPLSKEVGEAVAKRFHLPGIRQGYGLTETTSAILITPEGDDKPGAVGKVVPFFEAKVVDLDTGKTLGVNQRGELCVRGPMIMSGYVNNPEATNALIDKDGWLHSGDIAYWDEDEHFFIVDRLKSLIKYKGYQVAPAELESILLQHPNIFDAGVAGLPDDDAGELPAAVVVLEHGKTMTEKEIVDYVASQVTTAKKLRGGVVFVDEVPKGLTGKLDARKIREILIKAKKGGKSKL

[17] = viability loss in HEK293 cells – cell-based, plate reader, cherry-picked samples, cytotoxicity control, dose response (AID 743446); type: functional
[18] = A549 cell cytotoxicity, dose response, cytotoxicity control, plate reader, cherry-pick, antagonist series (AID 743412); type: functional, cell-based
[19] = target: T4, Orexin/Hypocretin receptor type 1; experiment: as §1, with “Homogeneous Time Resolved Fluorescence (HTRF)-based” for “Fluorescence-based”; type: functional
[20] = DRD fibroblast viability loss – cell-based, non-viral oncogenic, luminescence, dose response (AID 1934); type: functional; settings: Homo sapiens
[21] = as §2, with “Fluorescence-based” for “Homogeneous time resolved fluorescence (HTRF)-based”, “cell-based high throughput” for “cell-based”, “CHO” for “CHO-K1”; type: functional
[22] = cells
[23] = target: Cytochrome P450 2D6 (Homo sapiens, UniProt P10635);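 note: CYP2D6 member of a cytochrome P450 panel assay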
Chain of Cytochrome P450 2D6 (P10635 whole entry): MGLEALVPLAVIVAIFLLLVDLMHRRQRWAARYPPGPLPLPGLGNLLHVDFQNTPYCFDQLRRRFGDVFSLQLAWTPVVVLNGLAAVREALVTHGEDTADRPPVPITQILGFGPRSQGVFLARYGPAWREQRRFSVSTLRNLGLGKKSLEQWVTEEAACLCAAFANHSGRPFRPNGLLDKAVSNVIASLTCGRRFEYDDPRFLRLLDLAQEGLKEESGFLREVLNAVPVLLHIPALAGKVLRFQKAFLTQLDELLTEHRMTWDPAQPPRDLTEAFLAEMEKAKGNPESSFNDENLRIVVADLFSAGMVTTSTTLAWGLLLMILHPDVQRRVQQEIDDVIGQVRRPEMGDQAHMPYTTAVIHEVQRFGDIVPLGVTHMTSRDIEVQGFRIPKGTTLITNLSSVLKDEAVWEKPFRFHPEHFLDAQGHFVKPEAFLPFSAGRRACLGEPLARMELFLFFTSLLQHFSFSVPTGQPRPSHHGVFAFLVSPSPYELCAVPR

[24] = target: Prothrombin (Bos taurus, UniProt P00735); experiment: thrombin protease inhibitors – biochemical, fluorescence polarization, uHTS hits, dose response (AID 602369); type: functional
[25] = target: 72 kDa type IV collagenase (Homo sapiens, UniProt P08253); experiment: Dose Response validation of uHTS RPN11 inhibitor hits using a MMP-2 Fluorescence assay.; type: functional
[26] = target: 26S proteasome non-ATPase regulatory subunit 14 (Homo sapiens, UniProt O00487); experiment: inhibition of proteasome subunit RPN11 – biochemical, fluorescence polarization, uHTS hits, confirmation (AID 602368); type: functional
Chain of 26S proteasome non-ATPase regulatory subunit 14 (O00487 whole entry): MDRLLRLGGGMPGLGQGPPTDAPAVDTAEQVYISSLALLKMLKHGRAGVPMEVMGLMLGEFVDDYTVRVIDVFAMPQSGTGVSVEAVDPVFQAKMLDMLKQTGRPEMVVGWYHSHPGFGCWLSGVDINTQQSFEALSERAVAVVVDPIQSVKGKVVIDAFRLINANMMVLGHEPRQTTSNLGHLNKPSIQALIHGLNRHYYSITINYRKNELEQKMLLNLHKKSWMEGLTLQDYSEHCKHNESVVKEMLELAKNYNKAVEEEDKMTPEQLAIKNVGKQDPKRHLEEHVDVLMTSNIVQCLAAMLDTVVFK

[27] = target: T5, Aminopeptidase N (Plasmodium falciparum FcB1/Columbia, UniProt O96935); experiment: malaria alanyl aminopeptidase activity blockers – biochemical, fluorogenic H-Leu-NHMec substrate, 1536-well (AID 1445); parameters: species or system Plasmodium falciparum 3D7, 3D7
T5 sequence (O96935 whole entry): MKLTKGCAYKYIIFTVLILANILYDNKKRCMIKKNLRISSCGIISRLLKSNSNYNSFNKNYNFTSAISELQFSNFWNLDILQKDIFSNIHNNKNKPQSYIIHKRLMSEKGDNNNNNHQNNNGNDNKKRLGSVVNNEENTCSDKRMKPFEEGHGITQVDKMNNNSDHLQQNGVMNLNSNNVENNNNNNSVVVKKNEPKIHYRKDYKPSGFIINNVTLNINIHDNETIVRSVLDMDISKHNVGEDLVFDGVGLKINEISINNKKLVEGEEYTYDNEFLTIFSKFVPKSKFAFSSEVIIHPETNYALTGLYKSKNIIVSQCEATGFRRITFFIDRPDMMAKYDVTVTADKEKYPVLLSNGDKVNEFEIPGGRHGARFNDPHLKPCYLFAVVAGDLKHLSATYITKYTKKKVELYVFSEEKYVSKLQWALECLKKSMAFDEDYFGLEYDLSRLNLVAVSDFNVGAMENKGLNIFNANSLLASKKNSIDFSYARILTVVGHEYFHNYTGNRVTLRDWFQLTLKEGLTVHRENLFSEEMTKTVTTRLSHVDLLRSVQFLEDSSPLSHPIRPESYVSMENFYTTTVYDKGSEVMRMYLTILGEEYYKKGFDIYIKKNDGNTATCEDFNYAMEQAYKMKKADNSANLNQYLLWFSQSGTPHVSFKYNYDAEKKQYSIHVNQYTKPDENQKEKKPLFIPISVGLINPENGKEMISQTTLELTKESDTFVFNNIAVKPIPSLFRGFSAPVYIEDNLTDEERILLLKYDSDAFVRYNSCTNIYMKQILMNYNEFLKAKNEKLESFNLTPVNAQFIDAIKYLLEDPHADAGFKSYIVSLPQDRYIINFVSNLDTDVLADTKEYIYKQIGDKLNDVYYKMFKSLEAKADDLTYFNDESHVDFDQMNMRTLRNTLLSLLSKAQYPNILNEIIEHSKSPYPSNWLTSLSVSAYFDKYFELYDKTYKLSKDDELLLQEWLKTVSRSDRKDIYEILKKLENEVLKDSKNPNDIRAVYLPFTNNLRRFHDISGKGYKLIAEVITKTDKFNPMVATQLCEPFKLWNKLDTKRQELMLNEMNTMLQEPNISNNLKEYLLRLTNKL

[28] = target: Multidrug resistance protein CDR1 (Candida albicans, UniProt P43071); experiment: inhibition of Nile Red efflux via Candida CDR1 – S. cerevisiae AD1-8u, singleplex, Cherry Pick1 hits, dose response (AID 588606); type: functional
[29] = target: T6, Fatty acid synthase (Homo sapiens, UniProt P49327); experiment: inhibition of human FAS-TE enzyme activity – biochemical, endpoint fluorescence intensity, uHTS hits, dose response (AID 624327); type: functional;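 note: fluorescence from hydrolysis of an O-methyl fluorescein acyl ester substrate by the enzyme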
T6 sequence (P49327 whole entry): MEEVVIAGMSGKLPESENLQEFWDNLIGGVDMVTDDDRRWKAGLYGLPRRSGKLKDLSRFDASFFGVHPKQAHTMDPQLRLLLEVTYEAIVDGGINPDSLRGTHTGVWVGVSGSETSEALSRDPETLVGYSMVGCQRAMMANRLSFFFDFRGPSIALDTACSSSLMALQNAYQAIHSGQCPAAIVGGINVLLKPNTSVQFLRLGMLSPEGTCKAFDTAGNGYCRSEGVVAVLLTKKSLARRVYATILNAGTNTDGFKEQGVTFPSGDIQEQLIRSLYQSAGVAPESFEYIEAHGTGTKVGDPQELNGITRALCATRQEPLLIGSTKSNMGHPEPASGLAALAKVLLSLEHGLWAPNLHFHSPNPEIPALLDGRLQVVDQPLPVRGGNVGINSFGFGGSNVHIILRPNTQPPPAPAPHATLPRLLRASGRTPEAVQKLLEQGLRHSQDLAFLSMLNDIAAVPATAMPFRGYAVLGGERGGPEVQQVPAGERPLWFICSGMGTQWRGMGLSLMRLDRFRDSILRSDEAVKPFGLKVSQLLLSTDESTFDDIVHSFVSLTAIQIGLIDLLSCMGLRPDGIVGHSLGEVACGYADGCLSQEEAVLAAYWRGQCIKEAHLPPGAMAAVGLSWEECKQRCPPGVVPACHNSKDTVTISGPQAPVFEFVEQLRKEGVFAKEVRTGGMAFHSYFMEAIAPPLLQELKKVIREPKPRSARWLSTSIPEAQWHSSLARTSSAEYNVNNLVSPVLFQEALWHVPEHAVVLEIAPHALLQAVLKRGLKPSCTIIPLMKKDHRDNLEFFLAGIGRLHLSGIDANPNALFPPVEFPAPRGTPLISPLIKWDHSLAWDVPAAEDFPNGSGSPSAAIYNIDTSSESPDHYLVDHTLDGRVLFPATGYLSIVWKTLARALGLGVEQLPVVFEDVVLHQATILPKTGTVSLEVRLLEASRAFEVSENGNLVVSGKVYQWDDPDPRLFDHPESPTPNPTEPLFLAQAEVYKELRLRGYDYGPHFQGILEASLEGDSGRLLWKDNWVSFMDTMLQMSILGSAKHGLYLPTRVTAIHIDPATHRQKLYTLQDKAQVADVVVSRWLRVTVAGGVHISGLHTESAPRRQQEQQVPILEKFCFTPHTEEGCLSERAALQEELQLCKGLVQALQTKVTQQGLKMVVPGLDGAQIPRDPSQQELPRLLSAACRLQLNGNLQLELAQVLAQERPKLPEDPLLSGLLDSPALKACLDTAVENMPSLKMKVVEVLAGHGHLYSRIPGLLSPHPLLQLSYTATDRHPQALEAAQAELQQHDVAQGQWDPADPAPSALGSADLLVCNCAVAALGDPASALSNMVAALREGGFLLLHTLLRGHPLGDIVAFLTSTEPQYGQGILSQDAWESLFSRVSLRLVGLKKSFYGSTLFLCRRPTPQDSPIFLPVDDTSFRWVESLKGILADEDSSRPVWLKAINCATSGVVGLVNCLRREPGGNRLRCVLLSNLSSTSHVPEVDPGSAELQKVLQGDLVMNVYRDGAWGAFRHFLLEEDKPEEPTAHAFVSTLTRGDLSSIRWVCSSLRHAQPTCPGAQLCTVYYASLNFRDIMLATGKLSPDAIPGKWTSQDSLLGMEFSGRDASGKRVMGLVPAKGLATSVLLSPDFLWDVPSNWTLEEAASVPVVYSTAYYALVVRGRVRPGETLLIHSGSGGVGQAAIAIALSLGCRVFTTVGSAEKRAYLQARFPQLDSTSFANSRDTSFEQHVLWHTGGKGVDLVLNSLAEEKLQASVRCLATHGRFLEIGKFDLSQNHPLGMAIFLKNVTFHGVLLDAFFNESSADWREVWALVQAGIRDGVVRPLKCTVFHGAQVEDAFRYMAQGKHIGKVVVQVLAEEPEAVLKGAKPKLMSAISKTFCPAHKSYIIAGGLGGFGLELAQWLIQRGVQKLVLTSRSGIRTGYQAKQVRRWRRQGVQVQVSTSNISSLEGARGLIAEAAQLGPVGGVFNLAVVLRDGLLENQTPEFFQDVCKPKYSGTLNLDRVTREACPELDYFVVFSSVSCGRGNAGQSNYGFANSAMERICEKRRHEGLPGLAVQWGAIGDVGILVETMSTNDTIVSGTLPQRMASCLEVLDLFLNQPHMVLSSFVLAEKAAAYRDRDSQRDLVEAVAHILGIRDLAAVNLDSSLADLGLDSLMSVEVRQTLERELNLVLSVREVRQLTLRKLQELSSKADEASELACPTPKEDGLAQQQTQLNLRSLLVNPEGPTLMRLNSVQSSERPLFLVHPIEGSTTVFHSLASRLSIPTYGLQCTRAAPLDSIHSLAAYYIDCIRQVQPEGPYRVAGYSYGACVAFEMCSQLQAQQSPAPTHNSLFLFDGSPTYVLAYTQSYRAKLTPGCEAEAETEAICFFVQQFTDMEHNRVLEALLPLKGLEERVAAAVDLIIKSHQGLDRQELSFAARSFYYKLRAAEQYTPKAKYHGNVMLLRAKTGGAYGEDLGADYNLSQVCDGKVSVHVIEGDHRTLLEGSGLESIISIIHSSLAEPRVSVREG

[30] = target: T6, Fatty acid synthase; experiment: inhibition of human FAS-TE enzyme activity – biochemical, kinetic fluorescence intensity, dose response (AID 624326); type: functional;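 note: rate of fluorescence rise from hydrolysis of a fluorogenic O-methyl fluorescein ester substrate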
[31] = target: T7, Neuropeptides B/W receptor type 1 (Homo sapiens, UniProt P48145); experiment: human NPBW1 receptor blockade, IC50 – cell-based, fluorescence, dose response, set 6, late-stage follow-up (AID 588583); type: functional
T7 sequence (P48145 whole entry): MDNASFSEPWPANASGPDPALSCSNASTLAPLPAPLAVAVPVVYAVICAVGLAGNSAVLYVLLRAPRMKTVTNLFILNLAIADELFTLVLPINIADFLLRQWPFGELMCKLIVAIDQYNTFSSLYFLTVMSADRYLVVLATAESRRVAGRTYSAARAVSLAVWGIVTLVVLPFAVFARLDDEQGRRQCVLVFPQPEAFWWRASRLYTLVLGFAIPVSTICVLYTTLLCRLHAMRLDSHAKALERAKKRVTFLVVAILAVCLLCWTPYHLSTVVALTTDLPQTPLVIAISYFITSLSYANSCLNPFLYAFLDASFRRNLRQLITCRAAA

[32] = target: Melanin-concentrating hormone receptor 1 (Homo sapiens, UniProt Q99705); experiment: Late-stage fluorescence-based counterscreen for antagonists of the G-protein coupled receptor 7 (GPR7): cell-based dose response assay to identify antagonists of the melanin-concentrating hormone receptor 1 (MCHR1) Set 6.; type: functional

## c1ccc2nc(-c3nc4ccccc4o3)ccc2c1
[1]
  IC50: 0.006 µM (active)
[2]
  AC50: 3.53 µM (active)
[3]
  IC50: 41.7 µM (inactive)
[4]
  IC50: 9.69 µM (active)
[5]
  EC50: > 67.5 µM (inactive)
[6]
  EC50: 10.5 µM (active)
[7]
  CC50: > 40 µM (active)
[8]
  AC50: 2.72 µM (active)
[9]
  AC50: > 52 µM (inactive)
[10]
  EC50: > 133 µM (inactive)
[11]
  EC50: > 150 µM (inconclusive)
[12]
  EC50: 4.38 µM (active)
[13]
  IC50: 5.46 µM (active)
[14]
  IC50: > 66.2 µM (inactive)
[15]
  EC50: 8.74 µM (active)
[16]
  EC50: 1.36 µM (active)
[17]
  AC50: 11.1 µM (active)
[18]
  AC50: 22.5 µM (active)
[19]
  IC50: 0.954 µM (active)
[20]
  EC50: 7.36 µM (active)
[21]
  IC50: > 49.8 µM (inactive)
[22]
  EC50: > 67.5 µM (inactive)

## N#Cc1c(O)nc(SCC(=O)c2cccs2)nc1-c1cccs1
[23]
  AC50: inconclusive
[24]
  IC50: 47.8 µM (active)
[25]
  IC50: > 100 µM (inactive)
[26]
  IC50: 37.2 µM (active)
[27]
  IC50: 24.1 µM (active)

## COc1ccc(NC(=O)Nc2cccc3c2O[C@H](CN(C)C(=O)NC2CCCCC2)[C@@H](C)CN([C@H](C)CO)C3=O)cc1
[28]
  EC50: 8.86 µM (active)
[29]
  IC50: 3.56 µM (active)
[30]
  IC50: 3.35 µM (active)

## N#CC(c1ccccc1)c1c(Cl)cnn(C2c3ccccc3-c3ccccc32)c1=O (configuration not stated)
[31]
  IC50: 2.22 µM (active)
[32]
  IC50: 2.22 µM (active)
